Patent publication US11147797B2, “Photodynamic therapeutic compounds and photodynamic methods of treatment” (SALT AND LIGHT PHARMACEUTICALS PTY. LTD., priority 2016, dated 2021)

How the values were obtained:
[1] = tested on: binding between Ras and Ras-binding domain (RBD) of Rafl; assay: Ras pulldown with inhibitor interference (Active Ras PullDown and Detection Kit, Western blot)
Excerpt: 1.5.1 Ras pulldown with inhibitor interference: Inhibition of compounds on binding between Ras and Ras-binding domain (RBD) of Rafl was firstly analysed using Active Ras PullDown and Detection Kit (Thermofisher Scientific, Catalogue no 16117). The protocol was in accordance with the manual supplied with the kit. Western blot analysis was used to measure the inhibition. The known Inhibitor Kobe0065 was purchased from Focus Biosciences, Australia (www.focusbio.com.au) and used as the positive control.

Ras-Raf binding = assay: Ras activation ELIZA kit assay (chemiluminescent)
Method: 1.5.2 ELIZA Assay: Another method to detect the inhibition of the Representative Compounds used a Ras activation ELIZA kit (Merck Millipore, Cat no 17-497). The protocol was in accordance with the manual provided with the kit. The inhibition was measured using a Chemiluminescent imaging system. The known inhibitor Kobe0065 was purchased from Focus Biosciences, Australia (www.focusbio.com.au) and used as the positive control.

HCT-116 cells = assay: Cell proliferation assay (Cell Titre-Blue Cell Viability Assay); format: cell-based; conditions: Homo sapiens; HCT-116 colon-cancer cell line; FIG. 9, FIG. 10; read-out: IC50, inhibition of cell growth of HCT-116
Method: 1.8 Cells: Human cell lines were obtained from the NIH cell culture and cultured in media recommended by supplier.
1.9: Cell Proliferation Assays: Cells (2-3000) were seeded in a 96-well plate and cultured in McCoy's 5 containing 10% (vol/vol) FBS in the presence of one of compounds. Viable cell numbers were measured using a fluorometric kit (“Cell Titre-Blue Cell Viability Assay”: Promega Inc, USA). The viable cells convert blue colour dye to red/pink after incubating at 37 degrees with 5% CO2.

Absorption spectrum = format: physicochemical; conditions: compound 10 μM; long wavelength range
Method: 1.4 Absorption spectrum: The absorption spectra of the Representative Compounds were acquired. The concentration of compound was 10 μM.

Compound: Cc1ccc(NC(=S)NNc2c([N+](=O)[O-])cc(C(F)(F)F)cc2[N+](=O)[O-])cc1Cl [Kobe0065, reference compound]
- Ras-Raf inhibition, Ras pulldown ([1]; 10 uM compound): 0%
- Ras-Raf inhibition, Ras pulldown ([1]; 50 uM compound): 76%
- Ras-Raf inhibition, ELIZA (Ras-Raf binding; 10 uM compound): 66.8%
- Ras-Raf inhibition, ELIZA (Ras-Raf binding; 50 uM compound): 73.11%
- IC50 (Ras-Raf binding; estimated from Table 2, read-out: inhibition IC50, Ras activation ELIZA assay): < 10 µM

Compound: C[n+]1cccc(-c2c3nc(c(-c4ccccc4)c4ccc(cc5nc(c(-c6ccccc6)c6ccc2[nH]6)C=C5)[nH]4)C=C3)c1.[I-] [Representative Compound 10, 3-(10,20-diphenylporphyrin-5-yl)-1-methylpyridin-1-ium iodide]
- IC50 (HCT-116 cells): 20 to 25 µM
- absorption band (Absorption spectrum): 637 nm
- Ras-Raf inhibition, ELIZA (Ras-Raf binding; 10 uM compound): 35.2%
- Ras-Raf inhibition, ELIZA (Ras-Raf binding; 50 uM compound): 13.4%

Compound: C1=Cc2nc1c(-c1ccncc1)c1ccc([nH]1)c(-c1ccncc1)c1nc(c(-c3ccncc3)c3ccc([nH]3)c2-c2ccncc2)C=C1 [Representative Compound 1]
- Ras-Raf inhibition, Ras pulldown ([1]; 10 uM compound): 0%
- Ras-Raf inhibition, Ras pulldown ([1]; 50 uM compound): 76.5%
- IC50 ([1]; estimated from Table 2, read-out: inhibition IC50, Ras pulldown assay): 10 to 50 µM
- Ras-Raf inhibition, ELIZA (Ras-Raf binding; 10 uM compound): 34.61%
- Ras-Raf inhibition, ELIZA (Ras-Raf binding; 50 uM compound): 35.73%
- inhibition in Ras activation ELIZA assay compared with Ras pulldown assay (Ras-Raf binding; in words): much weaker
